According to ChEMBL document CHEMBL3868619, “Synthesis and biological assessment of novel N-(hydroxy/methoxy)alkyl β-enaminone curcuminoids” (Bioorg Med Chem Lett, 2016):
pEC50, pIC50: −log10 of the molar value. In brackets after ≈: the same amount, converted by molar mass. Activity calls are given as the source filed them. No cut-off for these calls is given here.

Legend:
[1] = Cytotoxicity against CHOK1 cells assessed as decrease in cell viability after 48 hrs by MTT assay; type: toxicity, cell-based, Cricetulus griseus; details: Chinese hamster, CHO-K1 cells
HepG2 [2] = assay: Cytotoxicity against human HepG2 cells assessed as change in cell morphology after 48 hrs; type: functional, cell-based
[3] = Cytotoxicity against human HepG2 cells assessed as decrease in cell viability after 48 hrs by MTT assay; type: functional, cell-based; details: HepG2, 48 h
[4] = Cytotoxicity against human Caco2 cells assessed as decrease in cell viability after 48 hrs by MTT assay; type: functional, cell-based; details: Caco-2, 48 h
[5] = Cytotoxicity against human EAhy926 cells assessed as decrease in cell viability after 48 hrs by MTT assay; type: toxicity, cell-based, EA.hy 926; details: EA.hy926 cells
[6] = Cytotoxicity against human HT-29 cells assessed as decrease in cell viability after 48 hrs by MTT assay; type: functional, cell-based; details: HT-29, 48 h
[7] = Induction of ROS generation in CHOK1 cells at 10 uM using DCFH-DA by fluorescence assay relative to control; type: cell-based, Cricetulus griseus; details: chinese hamster, cho-k1, 10 µM
[8] = Solubility of the compound in methanol; type: physicochemical
HepG2 [9] = assay: Induction of ROS generation in human HepG2 cells at 1 uM using DCFH-DA by fluorescence assay relative to control; type: functional
[10] = Solubility of the compound in ethanol; type: physicochemical
Caco-2 [11] = assay: Induction of ROS generation in human Caco2 cells at 10 uM using DCFH-DA by fluorescence assay relative to control; type: functional
[12] = Antioxidant activity assessed as DPPH radical scavenging activity after 30 mins by spectrophotometric analysis; type: functional
HT-29 [13] = assay: Induction of ROS generation in human HT-29 cells at 1 uM using DCFH-DA by fluorescence assay relative to control; type: functional
[14] = Solubility of the compound in acetone; type: physicochemical
EA.hy 926 [15] = assay: Induction of ROS generation in human EAhy926 cells at 1 uM using DCFH-DA by fluorescence assay relative to control; type: functional
[16] = Chemical stability of the compound sodium phosphate buffer at pH 6.8 after 24 hrs by LC-MS analysis; type: physicochemical; details: pH 6.8, 24 h
[17] = Solubility of the compound in dimethyl sulfoxide; type: physicochemical
[18] = Induction of ROS generation in CHOK1 cells at 1 uM using DCFH-DA by fluorescence assay relative to control; type: cell-based, Cricetulus griseus; details: chinese hamster, cho-k1, 1 µM
EA.hy 926 [19] = assay: Induction of ROS generation in human EAhy926 cells at 10 uM using DCFH-DA by fluorescence assay relative to control; type: functional
[20] = Aqueous solubility of the compound in sodium phosphate buffer at pH 6.8 after 24 hrs by shake flask method; type: physicochemical
[21] = Solubility of the compound in ethyl acetate; type: physicochemical
[22] = Solubility of the compound in 2-methyl-THF; type: physicochemical
HepG2 [23] = assay: Induction of ROS generation in human HepG2 cells at 10 uM using DCFH-DA by fluorescence assay relative to control; type: functional
Caco-2 [24] = assay: Induction of ROS generation in human Caco2 cells at 1 uM using DCFH-DA by fluorescence assay relative to control; type: functional
HT-29 [25] = assay: Induction of ROS generation in human HT-29 cells at 10 uM using DCFH-DA by fluorescence assay relative to control; type: functional
[26] = Solubility of the compound in dimethylformamide; type: physicochemical
[27] = Aqueous solubility of the compound in sodium phosphate buffer at pH 6.8 after 90 mins by shake flask method; type: physicochemical

SMILES	Activity [7] [%]	solubility [8]	solubility [10]	pEC50 [12]	solubility [14]	Stability [16]	solubility [17]	Activity [18] [%]	solubility thermodynamic at 24 h [20] [µM]	solubility [21]	IC50 at 48 h [1] [µM]	pIC50 [3]	pIC50 [4]	IC50 at 48 h [5] [µM]	pIC50 [6]	Activity (HepG2 [9]) [%]	Activity (Caco-2 [11]) [%]	Activity (HT-29 [13]) [%]	Activity (EA.hy 926 [15]) [%]	Activity (EA.hy 926 [19]) [%]	further results
COc1cccc2c1C(=O)c1c(O)c3c(c(O)c1C2=O)C[C@@](O)(C(=O)CO)C[C@@H]3O[C@H]1C[C@H](N)[C@H](O)[C@H](C)O1 [DOXORUBICIN]	–	–	–	–	–	–	–	–	–	–	4.2	< 4.12	5.03	4.2	5.13	–	–	–	–	–	Activity (HepG2 [2]): Active
O=C(/C=C(/C=C/c1ccc(O)cc1)NCCO)/C=C/c1ccc(O)cc1	85.7	Soluble	Soluble	< 3.70	Insoluble	Stable	Soluble	93.4	37.9 (≈ 13.3 µg/mL)	Insoluble	66	4.32	4.24	50.2	4.18	82.7	87.1	94.9	108	99.3	solubility [22]: Insoluble; Activity (HepG2 [23]): 83.6%; Activity (Caco-2 [24]): 98.1%; Activity (HT-29 [25]): 90.6%; solubility [26]: Soluble; solubility thermodynamic at 1.5 h [27]: 38.7 µM (≈ 13.6 µg/mL)
COCCNC(=C\C(=O)/C=C/c1ccc(O)cc1)/C=C/c1ccc(O)cc1	75.1	Soluble	Soluble	< 3.70	Insoluble	Stable	Soluble	82.5	46.1 (≈ 16.8 µg/mL)	Insoluble	34.9	4.20	4.55	45.1	4.24	76.4	89.7	97	130.3	134.2	solubility [22]: Insoluble; Activity (HepG2 [23]): 77.9%; Activity (Caco-2 [24]): 94.9%; Activity (HT-29 [25]): 96.8%; solubility [26]: Soluble; solubility thermodynamic at 1.5 h [27]: 37.5 µM (≈ 13.7 µg/mL)

Continued by rising pEC50 [12], values first:

Activity [7] [%]	solubility [8]	solubility [10]	pEC50 [12]	solubility [14]	Stability [16]	solubility [17]	Activity [18] [%]	solubility thermodynamic at 24 h [20] [µM]	solubility [21]	SMILES	IC50 at 48 h [1] [µM]	pIC50 [3]	pIC50 [4]	IC50 at 48 h [5] [µM]	pIC50 [6]	Activity (HepG2 [9]) [%]	Activity (Caco-2 [11]) [%]	Activity (HT-29 [13]) [%]	Activity (EA.hy 926 [15]) [%]	Activity (EA.hy 926 [19]) [%]	further results
80.5	Soluble	Soluble	3.81	Insoluble	Stable	Soluble	86.4	128 (≈ 46.9 µg/mL)	Insoluble	O=C(/C=C(/C=C/c1ccc(O)cc1)NCCCO)/C=C/c1ccc(O)cc1	39.1	4.27	4.50	57.3	4.23	91.3	91.7	92.5	93.3	109.9	solubility [22]: Insoluble; Activity (HepG2 [23]): 88.7%; Activity (Caco-2 [24]): 94.1%; Activity (HT-29 [25]): 96.9%; solubility [26]: Soluble; solubility thermodynamic at 1.5 h [27]: 137 µM (≈ 49.9 µg/mL)
97	Soluble	Soluble	3.88	Insoluble	Stable	Soluble	99.8	14.8 (≈ 5.63 µg/mL)	Insoluble	COCCCNC(=C\C(=O)/C=C/c1ccc(O)cc1)/C=C/c1ccc(O)cc1	44.9	4.21	4.62	81.9	4.28	79.5	89	98	107.6	98.7	solubility [22]: Insoluble; Activity (HepG2 [23]): 71.6%; Activity (Caco-2 [24]): 97%; Activity (HT-29 [25]): 95.7%; solubility [26]: Soluble; solubility thermodynamic at 1.5 h [27]: 10.4 µM (≈ 3.97 µg/mL)
81.2	Soluble	Soluble	4.53	Insoluble	Stable	Soluble	98.3	9.66 (≈ 4.25 µg/mL)	Insoluble	COCCCNC(=C\C(=O)/C=C/c1ccc(O)c(OC)c1)/C=C/c1ccc(O)c(OC)c1	53.7	< 4.00	4.31	> 100	4.14	68.5	84.8	99.5	91.5	89.9	solubility [22]: Insoluble; Activity (HepG2 [23]): 77.5%; Activity (Caco-2 [24]): 97.9%; Activity (HT-29 [25]): 95%; solubility [26]: Soluble; solubility thermodynamic at 1.5 h [27]: 7.7 µM (≈ 3.38 µg/mL)
90.9	Soluble	Soluble	4.55	Insoluble	Stable	Soluble	93.5	11.8 (≈ 4.85 µg/mL)	Insoluble	COc1cc(/C=C/C(=O)/C=C(/C=C/c2ccc(O)c(OC)c2)NCCO)ccc1O	87.5	< 4.00	4.06	> 100	< 4.00	86.3	96.6	95.8	113.3	102.4	solubility [22]: Insoluble; Activity (HepG2 [23]): 91.2%; Activity (Caco-2 [24]): 103.4%; Activity (HT-29 [25]): 102.7%; solubility [26]: Soluble; solubility thermodynamic at 1.5 h [27]: 8.14 µM (≈ 3.35 µg/mL)
89.9	Soluble	Soluble	4.56	Insoluble	Stable	Soluble	90.4	56.3 (≈ 24 µg/mL)	Insoluble	COc1cc(/C=C/C(=O)/C=C(/C=C/c2ccc(O)c(OC)c2)NCCCO)ccc1O	88.5	< 4.00	4.12	> 100	< 4.00	90	91	98.8	114.3	102.2	solubility [22]: Insoluble; Activity (HepG2 [23]): 101.5%; Activity (Caco-2 [24]): 93.4%; Activity (HT-29 [25]): 98.8%; solubility [26]: Soluble; solubility thermodynamic at 1.5 h [27]: 25.4 µM (≈ 10.8 µg/mL)
